Laboratory results taken from the Kinase Knowledgebase extract (Sharma et al. 2016).
pIC50: −log10 of the molar value.

target: PIK3CD (Human) (UniProt O00329); test: Cell-Based Assay; details: u937
Sequence (O00329 whole entry, looked up): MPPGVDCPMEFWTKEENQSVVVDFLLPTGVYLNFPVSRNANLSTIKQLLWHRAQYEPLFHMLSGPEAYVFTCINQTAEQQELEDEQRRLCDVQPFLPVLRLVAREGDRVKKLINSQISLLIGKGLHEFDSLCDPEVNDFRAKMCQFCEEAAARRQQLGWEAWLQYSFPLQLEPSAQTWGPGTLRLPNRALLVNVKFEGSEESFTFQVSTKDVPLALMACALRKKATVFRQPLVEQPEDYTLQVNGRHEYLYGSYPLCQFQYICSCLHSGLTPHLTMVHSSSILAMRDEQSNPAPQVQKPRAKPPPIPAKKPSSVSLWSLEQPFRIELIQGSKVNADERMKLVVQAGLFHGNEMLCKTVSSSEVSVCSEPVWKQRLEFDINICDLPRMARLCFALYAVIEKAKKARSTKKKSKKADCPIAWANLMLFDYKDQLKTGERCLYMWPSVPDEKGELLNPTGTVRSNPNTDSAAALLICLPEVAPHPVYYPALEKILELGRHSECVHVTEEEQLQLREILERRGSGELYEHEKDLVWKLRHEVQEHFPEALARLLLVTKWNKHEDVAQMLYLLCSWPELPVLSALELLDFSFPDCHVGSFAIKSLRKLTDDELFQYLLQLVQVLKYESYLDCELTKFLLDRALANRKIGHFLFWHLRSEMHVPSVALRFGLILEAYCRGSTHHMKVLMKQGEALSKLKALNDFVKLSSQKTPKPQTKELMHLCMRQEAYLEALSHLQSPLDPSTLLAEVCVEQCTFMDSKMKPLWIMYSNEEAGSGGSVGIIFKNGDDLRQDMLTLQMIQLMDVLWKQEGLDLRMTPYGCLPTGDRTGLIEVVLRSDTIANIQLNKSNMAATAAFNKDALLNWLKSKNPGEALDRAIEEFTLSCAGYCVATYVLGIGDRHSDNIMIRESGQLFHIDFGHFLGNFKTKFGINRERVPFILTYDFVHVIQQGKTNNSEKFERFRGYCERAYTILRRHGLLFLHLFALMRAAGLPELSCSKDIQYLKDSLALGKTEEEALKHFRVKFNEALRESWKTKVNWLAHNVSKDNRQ

pIC50 | Structure (SMILES)
> 8.00 | NC(=O)NCC#Cc1cccc2nc(Cn3nc(-c4ccc(O)cc4)c4c(N)ncnc43)n(Cc3ccccc3Cl)c(=O)c12
> 8.00 | Nc1ncnc2c1c(-c1cccc(O)c1)nn2Cc1nc2cccc(C#CCCCCC(=O)N3CCOCC3)c2c(=O)n1Cc1ccccc1Cl
> 8.00 | Nc1ncnc2c1c(-c1ccc(O)cc1)nn2Cc1nc2cccc(C#CCCCO)c2c(=O)n1Cc1ccccc1Cl
> 8.00 | Cc1nc(Cn2c(Cn3nc(-c4cccc(O)c4)c4c(N)ncnc43)nc3cccc(C#CCCCC(=O)N4CCOCC4)c3c2=O)cs1
> 8.00 | CN1CCN(CCN(C)C(=O)CCCC#Cc2cccc3nc(Cn4nc(-c5ccc(O)cc5)c5c(N)ncnc54)n(Cc4ccccc4Cl)c(=O)c23)CC1
> 8.00 | COCCN(CCCC#Cc1cccc2nc(Cn3nc(-c4ccc(O)cc4)c4c(N)ncnc43)n(Cc3ccccc3Cl)c(=O)c12)CCOC
> 8.00 | C#Cc1cccc2nc(Cn3nc(-c4ccc(O)cc4)c4c(N)ncnc43)n(Cc3cccc(Cl)c3F)c(=O)c12
> 8.00 | COCCOCCOCC#Cc1cccc2nc(Cn3nc(-c4cccc(O)c4)c4c(N)ncnc43)n(Cc3ccccc3F)c(=O)c12
> 8.00 | Cn1cc(Cn2c(Cn3nc(-c4cccc(O)c4)c4c(N)ncnc43)nc3cccc(C#CCCCC(=O)N4CCOCC4)c3c2=O)cn1
> 8.00 | COc1cc(Cn2c(Cn3nc(-c4ccc(O)cc4)c4c(N)ncnc43)nc3cccc(C#CCCCC(=O)N4CCOCC4)c3c2=O)cc(C(F)(F)F)c1
> 8.00 | C#Cc1cccc2nc(Cn3nc(-c4ccc(O)cc4)c4c(N)ncnc43)n(Cc3ccc(OC)cc3)c(=O)c12
> 8.00 | C#Cc1cccc2nc(Cn3nc(-c4ccc(O)c(F)c4)c4c(N)ncnc43)n(Cc3ccccc3Cl)c(=O)c12
> 8.00 | Nc1ncnc2c1c(-c1ccc(O)cc1)nn2Cc1nc2cccc(C#CCCCC(=O)N3CCOCC3)c2c(=O)n1Cc1ccccc1F
> 8.00 | Nc1ncnc2c1c(-c1cccc(O)c1)nn2Cc1nc2cccc(C#CCCC(=O)N3CCOCC3)c2c(=O)n1Cc1ccccc1Cl
> 8.00 | Nc1ncnc2c1c(-c1ccc(O)cc1)nn2Cc1nc2cccc(C#CCCCC(=O)NC3CCOCC3)c2c(=O)n1Cc1ccccc1Cl
6.00 to 8.00 | CN1CCCN(C(=O)CCCC#Cc2cccc3nc(Cn4nc(-c5cccc(O)c5)c5c(N)ncnc54)n(Cc4ccccc4Cl)c(=O)c23)CC1
> 8.00 | CC(=O)N1CCN(C(=O)CCCC#Cc2cccc3nc(Cn4nc(-c5ccc(O)cc5)c5c(N)ncnc54)n(Cc4ccccc4Cl)c(=O)c23)CC1
> 8.00 | COCCNC(=O)CCCC#Cc1cccc2nc(Cn3nc(-c4cccc(O)c4)c4c(N)ncnc43)n(Cc3ccccc3Cl)c(=O)c12
> 8.00 | C#Cc1cccc2nc(Cn3nc(-c4ccc(O)cc4)c4c(N)ncnc43)n(Cc3ccccc3)c(=O)c12
> 8.00 | C#Cc1cccc2nc(Cn3nc(-c4cccc(O)c4)c4c(N)ncnc43)n(Cc3cccc(S(C)(=O)=O)c3)c(=O)c12
> 8.00 | C#Cc1cccc2nc(Cn3nc(-c4ccc(O)cc4)c4c(N)ncnc43)n(Cc3ccc(F)cc3)c(=O)c12
> 8.00 | COCC#Cc1cccc2nc(Cn3nc(-c4ccc(O)cc4)c4c(N)ncnc43)n(Cc3cccc(OC)c3)c(=O)c12
> 8.00 | Nc1ncnc2c1c(-c1cccc(O)c1)nn2Cc1nc2cccc(C#CCCCC(=O)N3CCC(N4CCOCC4)CC3)c2c(=O)n1Cc1ccccc1Cl

pIC50 | Structure (SMILES)
> 8.00 | Nc1ncnc2c1c(-c1ccc(O)cc1)nn2Cc1nc2cccc(C#CCCCC(=O)NCCN3CCOCC3)c2c(=O)n1Cc1ccccc1Cl
> 8.00 | CN(C)C1CCN(C(=O)CCCC#Cc2cccc3nc(Cn4nc(-c5ccc(O)cc5)c5c(N)ncnc54)n(Cc4ccccc4Cl)c(=O)c23)CC1
> 8.00 | CC(C)NC(=O)CCCC#Cc1cccc2nc(Cn3nc(-c4cccc(O)c4)c4c(N)ncnc43)n(Cc3ccccc3Cl)c(=O)c12
> 8.00 | Nc1ncnc2c1c(-c1ccc(O)cc1)nn2Cc1nc2cccc(C#CCCCNC3CCCC3)c2c(=O)n1Cc1ccccc1Cl
> 8.00 | C#Cc1cccc2nc(Cn3nc(-c4ccc(O)cc4)c4c(N)ncnc43)n(Cc3ccc(Cl)cc3F)c(=O)c12
> 8.00 | C#Cc1cccc2nc(Cn3nc(-c4ccc(O)cc4)c4c(N)ncnc43)n(Cc3ccc(Cl)cc3)c(=O)c12
> 8.00 | C#Cc1cccc2nc(Cn3nc(-c4ccc(O)cc4)c4c(N)ncnc43)n(Cc3ccc(C(F)(F)F)cc3)c(=O)c12
> 8.00 | N#Cc1cccc(Cn2c(Cn3nc(-c4cccc(O)c4)c4c(N)ncnc43)nc3cccc(C#CCOCCOCCO)c3c2=O)c1
> 8.00 | Nc1ncnc2c1c(-c1ccc(O)cc1)nn2Cc1nc2cccc(C#CCC3CCCC3)c2c(=O)n1Cc1ccccc1Cl
> 8.00 | C#Cc1cccc2nc(Cn3nc(-c4ccc(F)c(O)c4)c4c(N)ncnc43)n(Cc3ccccc3Cl)c(=O)c12
> 8.00 | Nc1ncnc2c1c(-c1ccc(O)cc1)nn2Cc1nc2cccc(C#CCCCC(=O)N3CCCCC3)c2c(=O)n1Cc1ccccc1Cl
> 8.00 | Nc1ncnc2c1c(-c1ccc(O)cc1)nn2Cc1nc2cccc(C#CCCCC(=O)Nc3ccncc3)c2c(=O)n1Cc1ccccc1Cl
> 8.00 | CN1CCN(C(=O)CCCC#Cc2cccc3nc(Cn4nc(-c5cccc(O)c5)c5c(N)ncnc54)n(Cc4ccccc4Cl)c(=O)c23)CC1
> 8.00 | COCCN1CCN(C(=O)CCCC#Cc2cccc3nc(Cn4nc(-c5ccc(O)cc5)c5c(N)ncnc54)n(Cc4ccccc4Cl)c(=O)c23)CC1
> 8.00 | C#Cc1cccc2nc(Cn3nc(-c4ccc(O)cc4)c4c(N)ncnc43)n(Cc3ccc(C#N)cc3)c(=O)c12
> 8.00 | C#Cc1cccc2nc(Cn3nc(-c4ccc(O)cc4)c4c(N)ncnc43)n(Cc3ccccc3C(F)(F)F)c(=O)c12
> 8.00 | Nc1ncnc2c1c(-c1cccc(O)c1)nn2Cc1nc2cccc(C#CCCCC(=O)N3CCOCC3)c2c(=O)n1Cc1ccc2occc2c1
> 8.00 | C#Cc1cccc2nc(Cn3nc(-c4cccc(O)c4)c4c(N)ncnc43)n(Cc3cc(C)on3)c(=O)c12
> 8.00 | C#Cc1cccc2nc(Cn3nc(-c4ccc(O)cc4)c4c(N)ncnc43)n(Cc3cccc(C(F)(F)F)c3)c(=O)c12
> 8.00 | Nc1ncnc2c1c(-c1ccc(O)cc1)nn2Cc1nc2cccc(C#CCCCC(=O)N3CCOCC3)c2c(=O)n1Cc1cc2ccccc2s1
> 8.00 | C#Cc1cccc2nc(Cn3nc(-c4cccc(O)c4)c4c(N)ncnc43)n(Cc3ccc(Cl)cc3)c(=O)c12
> 8.00 | Nc1ncnc2c1c(-c1ccc(O)cc1)nn2Cc1nc2cccc(C#CCOc3ccccc3)c2c(=O)n1Cc1ccccc1Cl
> 8.00 | C#Cc1cccc2nc(Cn3nc(-c4ccc(O)cc4)c4c(N)ncnc43)n(Cc3ccc(OC)cc3F)c(=O)c12

pIC50 | Structure (SMILES)
> 8.00 | Nc1ncnc2c1c(-c1cccc(O)c1)nn2Cc1nc2cccc(C#CCCCCC(=O)O)c2c(=O)n1Cc1ccccc1Cl
> 8.00 | C#Cc1cccc2nc(Cn3nc(-c4ccc(O)cc4)c4c(N)ncnc43)n(Cc3cccc(OC)c3)c(=O)c12
> 8.00 | COCCN(CCOC)C(=O)CCCC#Cc1cccc2nc(Cn3nc(-c4ccc(O)cc4)c4c(N)ncnc43)n(Cc3ccccc3Cl)c(=O)c12
6.00 to 8.00 | CN(C)C1CCN(C(=O)CCCC#Cc2cccc3nc(Cn4nc(-c5cccc(O)c5)c5c(N)ncnc54)n(Cc4ccccc4Cl)c(=O)c23)C1 (stereo not drawn)
> 8.00 | CN(C)C1CCN(C(=O)CCCC#Cc2cccc3nc(Cn4nc(-c5ccc(O)cc5)c5c(N)ncnc54)n(Cc4ccccc4Cl)c(=O)c23)C1 (stereo not drawn)
> 8.00 | COc1cccc(Cn2c(Cn3nc(-c4ccc(O)cc4)c4c(N)ncnc43)nc3cccc(C#CCCCC(=O)N4CCOCC4)c3c2=O)c1F
> 8.00 | C#Cc1cccc2nc(Cn3nc(-c4ccc(O)cc4)c4c(N)ncnc43)n(Cc3ccc(Cl)c(Cl)c3)c(=O)c12
> 8.00 | COC(=O)c1cccc(Cn2c(Cn3nc(-c4cccc(O)c4)c4c(N)ncnc43)nc3cccc(C#CCCCC(=O)N4CCOCC4)c3c2=O)c1
> 8.00 | CN(C)CCNC(=O)CCCC#Cc1cccc2nc(Cn3nc(-c4ccc(O)cc4)c4c(N)ncnc43)n(Cc3ccccc3Cl)c(=O)c12
> 8.00 | C#Cc1cccc2nc(Cn3nc(-c4cccc(O)c4)c4c(N)ncnc43)n(Cc3ccc(C(F)(F)F)cc3)c(=O)c12
> 8.00 | Nc1ncnc2c1c(-c1ccc(O)cc1)nn2Cc1nc2cccc(C#CCOCc3ccccc3)c2c(=O)n1Cc1ccccc1Cl
> 8.00 | C#Cc1cccc2nc(Cn3nc(-c4ccc(O)cc4)c4c(N)ncnc43)n(Cc3c(F)cccc3F)c(=O)c12
> 8.00 | CN(C)C(=O)CCCC#Cc1cccc2nc(Cn3nc(-c4ccc(O)cc4)c4c(N)ncnc43)n(Cc3ccccc3Cl)c(=O)c12
> 8.00 | Nc1ncnc2c1c(-c1cccc(O)c1)nn2Cc1nc2cccc(C#CCCCC(=O)N3CCOCC3)c2c(=O)n1Cc1ccccc1Cl
> 8.00 | C#Cc1cccc2nc(Cn3nc(-c4ccc(O)cc4)c4c(N)ncnc43)n(Cc3ccc(S(C)(=O)=O)cc3)c(=O)c12
> 8.00 | CN1CCN(CCNC(=O)CCCC#Cc2cccc3nc(Cn4nc(-c5ccc(O)cc5)c5c(N)ncnc54)n(Cc4ccccc4Cl)c(=O)c23)CC1
> 8.00 | C#Cc1cccc2nc(Cn3nc(-c4ccc(O)cc4)c4c(N)ncnc43)n(Cc3cc(OC)ccc3F)c(=O)c12
> 8.00 | C#Cc1cccc2nc(Cn3nc(-c4cccc(O)c4)c4c(N)ncnc43)n(Cc3cccc(C#N)c3)c(=O)c12
> 8.00 | CN1CCCN(C(=O)CCCC#Cc2cccc3nc(Cn4nc(-c5ccc(O)cc5)c5c(N)ncnc54)n(Cc4ccccc4Cl)c(=O)c23)CC1
> 8.00 | Nc1ncnc2c1c(-c1cccc(O)c1)nn2Cc1nc2cccc(C#CCCNC(=O)N3CCOCC3)c2c(=O)n1Cc1ccccc1Cl
> 8.00 | COCC#Cc1cccc2nc(Cn3nc(-c4cccc(O)c4)c4c(N)ncnc43)n(Cc3ccc(Cl)cc3)c(=O)c12
> 8.00 | C#Cc1cccc2nc(Cn3nc(-c4ccc(O)cc4)c4c(N)ncnc43)n(Cc3cc(C)on3)c(=O)c12

Structure (SMILES) | pIC50
C#Cc1cccc2nc(Cn3nc(-c4ccc(O)cc4)c4c(N)ncnc43)n(Cc3cccc(Cl)c3)c(=O)c12 | > 8.00
C#Cc1cccc2nc(Cn3nc(-c4cccc(O)c4)c4c(N)ncnc43)n(Cc3cccc(Cl)c3)c(=O)c12 | > 8.00
Nc1ncnc2c1c(-c1cccc(O)c1)nn2Cc1nc2cccc(C#CCOCCN3CCOCC3)c2c(=O)n1Cc1ccccc1Cl | > 8.00
C#Cc1cccc2nc(Cn3nc(-c4ccc(O)cc4)c4c(N)ncnc43)n(Cc3ccccc3F)c(=O)c12 | > 8.00
C#Cc1cccc2nc(Cn3nc(-c4cccc(O)c4)c4c(N)ncnc43)n(Cc3ccccc3F)c(=O)c12 | > 8.00
